Experimental data: US20020137929A1, “1 - (3-heterocyclylphenyl) isothiourea, -isourea, -guanidine and -amidine herbicidal agents” (Intellectual Property Department, BASF Aktiengesellschaft, priority 1998, published 2002)

Experiments:
[1] = system: CASOB (Sicklepod); test: Postemergence herbicidal evaluation; type: in vivo, Cassia obtusifolia; details: postemergence
Method in brief: (§1)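 ~2-wk seedlings; postemergence spray, 40 psi; vehicle 1:1 acetone:water + 0.5% Tween 20; rate ≈0.0156–0.500 kg/ha; greenhouse hold; scored 4–5 wk after treatment, 0–9 scale vs control; repeat tests averaged.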

[2] = system: SAGPY (Arrowhead (Pygmaea)); test: Preemergence weed control under flooded paddy conditions; type: in vivo, Sagittaria pygmaea; details: rated 3-4 weeks after treatment
Method in brief: (§2)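 First, seeds or propagules go into the top 0.5 cm of silt loam; next, water is held 1.5 to 3 cm over the soil; then compound (50/50 acetone/water) is pipetted into it at about 0.0313 to 0.500 kg/ha; finally plants are rated visually 0-9 after three to four weeks.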

[3] = system: ABUTH (Velvetleaf); test: Preemergence herbicidal evaluation; type: in vivo, Abutilon theophrasti; details: rated 4-5 weeks after treatment, rating scale 0-9
Source text: (§3) Results of herbicide evaluation are expressed on a rating scale (0-9). The scale is based upon a visual observation of plant stand, vigor, malformation, size, chlorosis and overall plant appearance as compared with a control.
(§4) The preemergence herbicidal activity of the test compounds of the present invention is exemplified by the following tests in which the seeds of a variety of monocotyledonous and dicotyledonous plants are separately mixed with potting soil and planted on top of approximately one inch of soil in separate pint cups. After planting, the cups are sprayed with the selected aqueous acetone solution containing test compound in sufficient quantity to provide the equivalent of about 0.0156 to 0.500 kg per hectare of test compound per cup. The treated cups are then placed on greenhouse benches, watered and cared for in accordance with conventional greenhouse procedures. From four to five weeks after treatment, the tests are terminated and each cup is examined and rated according to the rating system provided in Example 37.
(§5) The compounds evaluated are reported by compound number given in Example 37.

[4] = system: IPOHE (Morningglory, Ivyleaf); test: Preemergence herbicidal evaluation; type: in vivo, Ipomoea hederacea; details: rated 4-5 weeks after treatment, rating scale 0-9
Method in brief: (§6)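 Rating at 4–5 wk post-spray on a 0–9 visual scale vs control. Application: aqueous acetone, ~0.0156–0.500 kg/ha, to soil surface after seeding, preemergence.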

[5] = system: CASOB (Sicklepod); test: Preemergence herbicidal evaluation; type: in vivo, Cassia obtusifolia; details: rated 4-5 weeks after treatment, rating scale 0-9
Source text: as §3, §4, §5

[6] = system: ZEAMX (Corn, Field); test: Preemergence herbicidal evaluation; type: in vivo, Zea mays; details: rated 4-5 weeks after treatment, rating scale 0-9
Source text: as §3, §4, §5

[7] = system: TRZAWR (Wheat, Winter, cv Riband); test: Preemergence herbicidal evaluation; type: in vivo, Triticum aestivum; details: rated 4-5 weeks after treatment, rating scale 0-9
Method in brief: as §6

[8] = system: GLXMAW (Soybean, Williams); test: Preemergence herbicidal evaluation; type: in vivo, Glycine max, (L.) Merr. cv Williams; details: rated 4-5 weeks after treatment, rating scale 0-9
Method in brief: as §6

[9] = system: MOOVA (Monochoria); test: Preemergence weed control under flooded paddy conditions; type: in vivo, Monochoria vaginalis; details: rated 3-4 weeks after treatment
Method in brief: as §2

[10] = system: ECHCG (Barnyardgrass); test: Preemergence herbicidal evaluation; type: in vivo, Echinochloa crus-galli; details: rated 4-5 weeks after treatment, rating scale 0-9
Method in brief: as §6

[11] = system: AMBEL (Ragweed, Common); test: Postemergence herbicidal evaluation; type: in vivo, Ambrosia artemisifolia; details: postemergence
Method in brief: as §1

[12] = system: IPOHE (Morningglory, Ivyleaf); test: Postemergence herbicidal evaluation; type: in vivo, Ipomoea hederacea; details: postemergence
Method in brief: as §1

[13] = system: GALAP (Galium); test: Postemergence herbicidal evaluation; type: in vivo, Galium aparine; details: postemergence
Method in brief: as §1

Cn1c(C(F)(F)F)cc(=O)n(-c2cc(N=C3SCC(=O)N3Cc3ccccc3Cl)c(Cl)cc2F)c1=O [Compound 143]
herbicidal rating CASOB ([1]; rate 0.0156 kg/ha): 0.0
herbicidal rating CASOB ([1]; rate 0.0313 kg/ha): 1.0
herbicidal rating CASOB ([1]; rate 0.0625 kg/ha): 3.0
herbicidal effect rating, SAGPY ([2]; 0.0313 kg/ha): 0.0
herbicidal effect rating, SAGPY ([2]; 0.0625 kg/ha): 0.0
herbicidal effect rating, SAGPY ([2]; 0.1250 kg/ha): 0.0
herbicidal effect rating, SAGPY ([2]; 0.2500 kg/ha): 5.0
Preemergence herbicidal rating ABUTH ([3]; rate 0.0313 kg/ha): 1.0
Preemergence herbicidal rating ABUTH ([3]; rate 0.0625 kg/ha): 1.0
Preemergence herbicidal rating ABUTH ([3]; rate 0.1250 kg/ha): 6.0
Preemergence herbicidal rating ABUTH ([3]; rate 0.2500 kg/ha): 9.0
Preemergence herbicidal rating IPOHE ([4]; rate 0.0313 kg/ha): 0.0
Preemergence herbicidal rating IPOHE ([4]; rate 0.0625 kg/ha): 0.0
Preemergence herbicidal rating IPOHE ([4]; rate 0.1250 kg/ha): 1.0
Preemergence herbicidal rating IPOHE ([4]; rate 0.2500 kg/ha): 3.0
Preemergence herbicidal rating CASOB ([5]; rate 0.0313 kg/ha): 0.0
Preemergence herbicidal rating CASOB ([5]; rate 0.0625 kg/ha): 0.0
Preemergence herbicidal rating CASOB ([5]; rate 0.1250 kg/ha): 0.0
Preemergence herbicidal rating CASOB ([5]; rate 0.2500 kg/ha): 1.0
Preemergence herbicidal rating ZEAMX ([6]; rate 0.0313 kg/ha): 0.0
Preemergence herbicidal rating ZEAMX ([6]; rate 0.0625 kg/ha): 0.0
Preemergence herbicidal rating ZEAMX ([6]; rate 0.1250 kg/ha): 0.0
Preemergence herbicidal rating ZEAMX ([6]; rate 0.2500 kg/ha): 0.0
Preemergence herbicidal rating TRZAWR ([7]; rate 0.0313 kg/ha): 0.0
Preemergence herbicidal rating TRZAWR ([7]; rate 0.0625 kg/ha): 0.0
Preemergence herbicidal rating TRZAWR ([7]; rate 0.1250 kg/ha): 0.0
Preemergence herbicidal rating TRZAWR ([7]; rate 0.2500 kg/ha): 1.0
Preemergence herbicidal rating GLXMAW ([8]; rate 0.0313 kg/ha): 0.0
Preemergence herbicidal rating GLXMAW ([8]; rate 0.0625 kg/ha): 0.0
Preemergence herbicidal rating GLXMAW ([8]; rate 0.1250 kg/ha): 0.0
Preemergence herbicidal rating GLXMAW ([8]; rate 0.2500 kg/ha): 1.0
herbicidal effect rating, MOOVA ([9]; 0.0313 kg/ha): 5.0
herbicidal effect rating, MOOVA ([9]; 0.0625 kg/ha): 6.0
herbicidal effect rating, MOOVA ([9]; 0.1250 kg/ha): 6.0
herbicidal effect rating, MOOVA ([9]; 0.2500 kg/ha): 6.0
Preemergence herbicidal rating ECHCG ([10]; rate 0.0313 kg/ha): 0.0
Preemergence herbicidal rating ECHCG ([10]; rate 0.0625 kg/ha): 0.0
Preemergence herbicidal rating ECHCG ([10]; rate 0.1250 kg/ha): 1.0
Preemergence herbicidal rating ECHCG ([10]; rate 0.2500 kg/ha): 1.0
herbicidal rating AMBEL ([11]; rate 0.0156 kg/ha): 9.0
herbicidal rating AMBEL ([11]; rate 0.0313 kg/ha): 9.0
herbicidal rating AMBEL ([11]; rate 0.0625 kg/ha): 9.0
herbicidal rating IPOHE ([12]; rate 0.0156 kg/ha): 9.0
herbicidal rating IPOHE ([12]; rate 0.0313 kg/ha): 9.0
herbicidal rating IPOHE ([12]; rate 0.0625 kg/ha): 9.0
herbicidal rating GALAP ([13]; rate 0.0156 kg/ha): 0.0
herbicidal rating GALAP ([13]; rate 0.0313 kg/ha): 1.0
herbicidal rating GALAP ([13]; rate 0.0625 kg/ha): 3.0

Cn1c(C(F)(F)F)cc(=O)n(-c2cc(N=C3SCC(=O)N3Cc3ccc(S(N)(=O)=O)cc3)c(Cl)cc2F)c1=O [Compound 135, Alpha-{2-{{2-chloro-5-[3,6-dihydro-3-methyl-2,6-dioxo-4-(trifluoromethyl)-1(2H)-pyrimidinyl]-4-fluorophenyl}imino}-4-oxo-3-thiazolidinyl}-p-toluenesulfonamide]
herbicidal rating CASOB ([1]; rate 0.0156 kg/ha): 2.0
herbicidal rating CASOB ([1]; rate 0.0313 kg/ha): 4.0
herbicidal rating CASOB ([1]; rate 0.0625 kg/ha): 4.0
herbicidal effect rating, SAGPY ([2]; 0.0313 kg/ha): 0.0
herbicidal effect rating, SAGPY ([2]; 0.0625 kg/ha): 3.0
herbicidal effect rating, SAGPY ([2]; 0.1250 kg/ha): 5.0
herbicidal effect rating, SAGPY ([2]; 0.2500 kg/ha): 6.0
Preemergence herbicidal rating ABUTH ([3]; rate 0.0156 kg/ha): 0.0
Preemergence herbicidal rating ABUTH ([3]; rate 0.0313 kg/ha): 0.0
Preemergence herbicidal rating ABUTH ([3]; rate 0.0625 kg/ha): 3.0
Preemergence herbicidal rating ABUTH ([3]; rate 0.1250 kg/ha): 6.0
Preemergence herbicidal rating ABUTH ([3]; rate 0.2500 kg/ha): 8.0
Preemergence herbicidal rating IPOHE ([4]; rate 0.0156 kg/ha): 0.0
Preemergence herbicidal rating IPOHE ([4]; rate 0.0313 kg/ha): 0.0
Preemergence herbicidal rating IPOHE ([4]; rate 0.0625 kg/ha): 1.0
Preemergence herbicidal rating IPOHE ([4]; rate 0.1250 kg/ha): 9.0
Preemergence herbicidal rating IPOHE ([4]; rate 0.2500 kg/ha): 9.0
Preemergence herbicidal rating CASOB ([5]; rate 0.0156 kg/ha): 0.0
Preemergence herbicidal rating CASOB ([5]; rate 0.0313 kg/ha): 1.0
Preemergence herbicidal rating CASOB ([5]; rate 0.0625 kg/ha): 1.0
Preemergence herbicidal rating CASOB ([5]; rate 0.1250 kg/ha): 1.0
Preemergence herbicidal rating CASOB ([5]; rate 0.2500 kg/ha): 5.0
Preemergence herbicidal rating ZEAMX ([6]; rate 0.0156 kg/ha): 1.0
Preemergence herbicidal rating ZEAMX ([6]; rate 0.0313 kg/ha): 1.0
Preemergence herbicidal rating ZEAMX ([6]; rate 0.0625 kg/ha): 0.0
Preemergence herbicidal rating ZEAMX ([6]; rate 0.1250 kg/ha): 2.0
Preemergence herbicidal rating ZEAMX ([6]; rate 0.2500 kg/ha): 1.0
Preemergence herbicidal rating TRZAWR ([7]; rate 0.0156 kg/ha): 0.0
Preemergence herbicidal rating TRZAWR ([7]; rate 0.0313 kg/ha): 0.0
Preemergence herbicidal rating TRZAWR ([7]; rate 0.0625 kg/ha): 0.0
Preemergence herbicidal rating TRZAWR ([7]; rate 0.1250 kg/ha): 0.0
Preemergence herbicidal rating TRZAWR ([7]; rate 0.2500 kg/ha): 1.0
Preemergence herbicidal rating GLXMAW ([8]; rate 0.0156 kg/ha): 0.0
Preemergence herbicidal rating GLXMAW ([8]; rate 0.0313 kg/ha): 0.0
Preemergence herbicidal rating GLXMAW ([8]; rate 0.0625 kg/ha): 0.0
Preemergence herbicidal rating GLXMAW ([8]; rate 0.1250 kg/ha): 1.0
Preemergence herbicidal rating GLXMAW ([8]; rate 0.2500 kg/ha): 3.0
herbicidal effect rating, MOOVA ([9]; 0.0313 kg/ha): 6.0
herbicidal effect rating, MOOVA ([9]; 0.0625 kg/ha): 9.0
herbicidal effect rating, MOOVA ([9]; 0.1250 kg/ha): 9.0
herbicidal effect rating, MOOVA ([9]; 0.2500 kg/ha): 8.0
Preemergence herbicidal rating ECHCG ([10]; rate 0.0156 kg/ha): 0.0
Preemergence herbicidal rating ECHCG ([10]; rate 0.0313 kg/ha): 0.0
Preemergence herbicidal rating ECHCG ([10]; rate 0.0625 kg/ha): 0.0
Preemergence herbicidal rating ECHCG ([10]; rate 0.1250 kg/ha): 0.0
Preemergence herbicidal rating ECHCG ([10]; rate 0.2500 kg/ha): 1.0
herbicidal rating AMBEL ([11]; rate 0.0156 kg/ha): 9.0
herbicidal rating AMBEL ([11]; rate 0.0313 kg/ha): 9.0
herbicidal rating AMBEL ([11]; rate 0.0625 kg/ha): 9.0
herbicidal rating IPOHE ([12]; rate 0.0156 kg/ha): 9.0
herbicidal rating IPOHE ([12]; rate 0.0313 kg/ha): 9.0
herbicidal rating IPOHE ([12]; rate 0.0625 kg/ha): 9.0
herbicidal rating GALAP ([13]; rate 0.0156 kg/ha): 1.0
herbicidal rating GALAP ([13]; rate 0.0313 kg/ha): 3.0
herbicidal rating GALAP ([13]; rate 0.0625 kg/ha): 4.0
